The text below walks through data of patent US20050096331A1, “Novel compounds and their use in medicine process for their preparation and pharmaceutical compositions containing them” (priority 2001, published 2005).

One assay deals with C57BL/KsJ-db/db mice. As to the kind of experiment: Efficacy in genetic models: blood sugar and triglyceride lowering in db/db mice. The assay is classed as in vivo, mouse. The source says: Mutation in colonies of laboratory animals and different sensitivities to dietary regimens have made the development of animal models with non-insulin dependent diabetes and hyperlipidemia associated with obesity and insulin resistance possible. Genetic models such as db/db and ob/ob (Diabetes, (1982) 31(1): 1-6) mice and zucker fa/fa rats have been developed by the various laboratories for understanding the pathophysiology of disease and testing the efficacy of new antidiabetic compounds (Diabetes, (1983) 32: 830-838; Annu. Rep. Sankyo Res. Lab. (1994). 46: 1-57). The homozygous animals, C57 BL/KsJ-db/db mice developed by Jackson Laboratory, US, are obese, hyperglycemic, hyperinsulinemic and insulin resistant (J. Clin. Invest., (1990) 85: 962-967), whereas heterozygous are lean and normoglycemic. In db/db model, mouse progressively develops insulinopenia with age, a feature commonly observed in late stages of human type II diabetes when blood sugar levels are insufficiently controlled. The state of pancreas and its course vary according to the models. Since this model resembles that of type II diabetes mellitus, the compounds of the present invention were tested for blood sugar and triglycerides lowering activities.
Male C57BL/KsJ-db/db mice of 8 to 14 weeks age, having body weight range of 35 to 60 grams, bred at Dr. Reddy's Research Foundation (DRF) animal house, were used in the experiment The mice were provided with standard feed (National Institute of Nutrition (NIN), Hyderabad, India) and acidified water, ad libitum. The animals having more tan 350 mg/dl blood sugar were used for testing. The number of animals in each group was 4.
Test compounds were suspended on 0.25% carboxymethyl cellulose and administered to test group at a dose of 0.1 mg to 30 mg/kg through oral gavage daily for 6 days. The control group received vehicle (dose 10 ml/kg). On 6th day the blood samples were collected one hour after administration of test compounds/vehicle for assessing the biological activity.
The random blood sugar and triglyceride levels were measured by collecting blood (100 μl) through orbital sinus, using heparinised capillary in tubes containing EDTA which was centrifuged to obtain plasma. The plasma glucose and triglyceride levels were measured spectrometrically, by glucose oxidase and glycerol-3-PO4 oxidase/peroxidase enzyme (Dr. Reddy's Lab. Diagnostic Division Kits, Hyderabad, India) methods respectively.
The blood sugar and triglycerides lowering activities of the test compound was calculated according to the formula.
(§1) • 1. Percent reduction in Blood sugar/triglycerides/total cholesterol were calculated according to the formula: [formula] • OC=Zero day control group value • OT=Zero day treated group value • TC=Test day control group value • TT=Test day treated group value • 2. LDL and VLDL cholesterol levels were calculated according to the formula: [formula] [formula]

The next assay addresses T1, hPPARγ1 (Homo sapiens, UniProt P37231).
T1 construct: expressed in transfected cells; host or cells: HEK-293
T1 sequence (P37231 238-503 limits assumed): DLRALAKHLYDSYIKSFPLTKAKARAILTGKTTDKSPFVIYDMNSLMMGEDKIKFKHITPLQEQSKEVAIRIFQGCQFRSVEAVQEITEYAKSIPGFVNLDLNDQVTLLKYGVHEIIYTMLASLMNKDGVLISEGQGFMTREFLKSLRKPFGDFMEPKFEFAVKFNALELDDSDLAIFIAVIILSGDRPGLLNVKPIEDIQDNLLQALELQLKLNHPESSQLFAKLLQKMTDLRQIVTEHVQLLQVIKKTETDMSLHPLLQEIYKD
The assay can be described thus: Determination of hPPARγ activity (GAL4 luciferase reporter transactivation). The assay is classed as cell-based. The settings on record: compound at 1 μM; luciferase activity in transfected HEK-293 cells. As for the experimental part:
Ligand binding domain of hPPARγ1 was fused to DNA binding domain of Yeast transcription factor GAL4 in eucaryotic expression vector. Using lipofectamine (Gibco BRL, USA) as transfecting reagent HEK-293 cells were transfected with this plasmid and a reporter plasmid harboring the luciferase gene driven by a GAL4 specific promoter. Compound was added at 1 μM concentration after 48 hrs of transfection and incubated overnight. Luciferase activity as a function of drug binding/activation capacity of PPARγ1 was measured using Packard Luclite kit (Packard, USA) in Packard Top Count (Ivan Sadowski, Brendan Bell, Peter Broag and Melvyn Hollis. Gene 1992, 118: 137-141; Guide to Eukaryotic Transfections with Cationic Lipid Reagents. Life Technologies, GIBCO BRL, USA).

In a further assay the target is T2, hPPARα (Homo sapiens, UniProt Q07869).
T2 construct: expressed in transfected cells; host or cells: HEK-293
T2 sequence (Q07869 239-466 limits assumed): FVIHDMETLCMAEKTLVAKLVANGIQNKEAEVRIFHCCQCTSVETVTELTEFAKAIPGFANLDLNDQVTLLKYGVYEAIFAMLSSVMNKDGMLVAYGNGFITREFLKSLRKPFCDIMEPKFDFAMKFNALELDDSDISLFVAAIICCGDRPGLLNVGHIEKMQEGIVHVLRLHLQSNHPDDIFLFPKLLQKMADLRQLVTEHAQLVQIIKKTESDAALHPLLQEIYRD
The assay can be described thus: Determination of hPPARα activity (GAL4 luciferase reporter transactivation). In kind it is cell-based. The note with it: compound at 50 μM; luciferase activity in transfected HEK-293 cells. As to the method:
Ligand binding domain of hPPARα was fused to DNA binding domain of Yeast transcription factor GAL4 in eucaryotic expression vector. Using superfect (Qiagen, Germany) as transfecting reagent HEK-293 cells were transfected with this plasmid and a reporter plasmid harboring the luciferase gene driven by a GAL4 specific promoter. Compound was added at different concentrations after 42 hrs of transfection and incubated overnight. Luciferase activity as a function of compound binding/activation capacity of PPARα was measured using Packard Luclite kit (Packard, USA) in Top Count (Ivan Sadowski, Brendan Bell, Peter Broag and Melvyn Hollis. Gene 1992, 118: 137-141; Superfect Transfection Reagent Handbook. February 1997. Qiagen, Germany).
A general note: In a reporter assay the amount or activity of a reporter protein is the signal.

For another assay, the system named is Swiss albino mice. The assay can be described thus: Plasma triglyceride and total cholesterol lowering activity in Swiss albino mice and Guinea pigs. The assay is classed as in vivo, mouse. The note with it: 6 days. As for the experimental part: Male Swiss albino mice (SAM) and male Guinea pigs were obtained from NIN and housed in DRF animal house. All these animals were maintained under 12 hour light and dark cycle at 25±1° C. Animals were given standard laboratory chow (NIN, Hyderabad, India) and water, ad libitum. SAM of 20-25 g body weight range and Guinea pigs of 500-700 g body weight range were used (Oliver, P., Plancke, M. O., Marzin, D., Clavey, V., Sauzieres, J and Fruchart, J. C. Effects of fenofibrate, gemfibrozil and nicotinic acid on plasma lipoprotein levels in normal and hyperlipidemic mice. Atherosclerosis. 1988. 70: 107-114).
The test compounds were administered orally to Swiss albino mice at 0.3 to 30 mg/kg/day dose for 6 days. Control mice were treated with vehicle (0.25% Carboxymethylcellulose; dose 10 ml/kg). The test compounds were administered orally to Guinea pigs at […] dose for 6 days. Control animals were treated with vehicle (0.25% Carboxymethylcellulose; dose 5 ml/kg).
The blood samples were collected in fed state 1 hour after drug administration on 0 and 6 day of treatment. The blood was collected from the retro-orbital sinus through heparinised capillary in EDTA containing tubes. After centrifugation, plasma sample was separated for triglyceride and total cholesterol (Wieland, O. Methods of Enzymatic analysis. Bergermeyer, H. O., Ed., 1963. 211-214; Trinder, P. Ann. Clin. Biochem 1969, 6: 24-27). Measurement of plasma triglyceride, total cholesterol and HDL were done using commercial kits (Dr. Reddy's Diagnostic Division, Hyderabad, India).
as §1

Where [1] appears, read: 3 mg/kg oral gavage daily for 6 days.
Where [2] appears, read: 10 mg/kg oral gavage daily for 6 days.

Regarding `CCCc1nn(C)c2c(OCCOc3ccc(CC(OCC)C(=O)OCC)cc3)nc(C)nc12` (stereo in doubt) [Example 5, Ethyl 2(S)-3-[4-{2-1,5-dimethyl-3-propyl-1H-pyrazolo[4,3-dipyrimidin-7-yloxy)ethoxy}phenyl]-2-ethoxypropanoate], in the assay on C57BL/KsJ-db/db mice (setting [1]), the “Reduction in Blood Glucose Level (%)” value was 61% and the “Triglyceride Lowering (%)” value was determined as 51%.

Molecule `CCCCCCCN(C(=O)COc1nc(CC)nc2c(CCC)nn(C)c12)c1ccc(SC(CCC)C(=O)O)cc1` (stereo not shown) [Example 2, 2-[4-(5-Ethyl-1-methyl-3-propyl-1H-pyrazolo[4,3-d]pyrimidin-7-yloxymethyl-(heptyl)carboxamido)phenylsulfanyl]pentanoic Acid] gave a PPARγ on hPPARγ1 of 1.4. Also, the PPARα at hPPARα is on record as 2.7. On to `CCCc1nn(C)c2c(OCCOc3ccc(C[C@H](OCC)C(=O)OC)cc3)nc(CC)nc12` [Example 4a, Methyl 2(S)-2-ethoxy-3-[4-{2-(5-ethyl-1-methyl-3-propyl-1H-pyrazolo [4,3-d]-pyrimidin-7-yloxy)ethoxy}phenyl]propanoate], for which, in the assay with C57BL/KsJ-db/db mice (setting [2]), the “Reduction in Blood Glucose Level (%)” value worked out at 48% and the “Triglyceride Lowering (%)” value was 69%. On to `CCCc1nn(C)c2c(OCCOc3ccc(C[C@H](OCC)C(=O)O)cc3)nc(CC)nc12` [Example 4b, 2(S)-2-Ethoxy-3-[4-{2-(5-ethyl-1-methyl-3-propyl-1H-pyrazolo[4,3-d]pyrimidin-7-yloxy)ethoxy}phenyl]propanoic Acid], for which the PPARγ on hPPARγ1 is on record as 6.9. This molecule also showed a PPARα at hPPARα of 5.1. Also, in the assay with C57BL/KsJ-db/db mice (setting [2]), the “Reduction in Blood Glucose Level (%)” value amounted to 56% and the “Triglyceride Lowering (%)” value was 17%. With `CCCc1nn(C)c2c(OCCOc3ccc(CC(OCC)C(=O)OCC)cc3)nc(-c3ccccc3)nc12` (stereo not shown) [Example 7, Ethyl 2-ethoxy-3-[4-{2-(1-methyl-5-phenyl-3-propyl-1H-pyrazolo-[4,3-d]-pyrimidin-7-yloxy)ethoxy}phenyl]propanoate], the “Triglyceride Lowering (%)” value in the assay with Swiss albino mice (3 mg/kg orally) was determined as 43%. Consider `CCCc1nn(C)c2c(OCCOc3ccc(CC(OCC)C(=O)O)cc3)nc(-c3ccccc3)nc12` (stereo not shown) [Example 8, 3-[4-{2-(1-Methyl-5-phenyl-3-propyl-1H-pyrazolo-14,3-d]pyrimidin-7-yloxy)ethoxy}phenyl-2-ethoxypropanoic Acid], for which the “Triglyceride Lowering (%)” value in the assay with Swiss albino mice (10 mg/kg orally) worked out at 61%. Take `CCCc1nn(C)c2c(OCCOc3ccc(C[C@H](OCC)C(=O)O)cc3)nc(C3CC3)nc12` [Example 10, (2S)-3-[4-{2-(5-Cyclopropyl-1-methyl-3-propyl-1H-pyrazolo[4,3-d]pyrimidin-7-yloxy)ethoxy}phenyl]-2-ethoxypropanoic Acid]: the “Triglyceride Lowering (%)” value with Swiss albino mice (3 mg/kg orally) was 42%.
